Paper PMC9853869, “The Myxobacterial Antibiotic Myxovalargin: Biosynthesis, Structural Revision, Total Synthesis, and Molecular Characterization of Ribosomal Inhibition” (Journal of the American Chemical Society, 2023)
Values after ≈ are worked out from the molar mass of the structure shown. Like-named read-outs stand apart in the source and are kept apart here. *1 amine or outer side, *2 acyl side, *3 side chain or, on linkers, in order; H or OH if unused. Where a SMILES comes first, the peptide text is derived from it. [ ]: non-standard residue; d: D form. The star is where a group is joined. X1 = O=C(C[C@H](N[*:1])c1ccc(O)cc1)[*:2]; dVal(3-OH) = CC(C)(O)[C@@H](N)C(=O)O; X2 = CCC(C)=C(N[*:1])C(=O)[*:2]; ΔIle(E) = CC/C(C)=C(/N)C(=O)O; Isovaleryl = CC(C)CC(=O)*; Agmatine = N=C(N)NCCCCN*; Isobutyryl = CC(C)C(=O)*; NMeA = CN[C@@H](C)C(=O)O; ΔVal = CC(C)=C(N)C(=O)O

Key:
[1] = test system: Staphylococcus aureus DSM-346; details: DSM-346, 24 h
[2] = test system: Mycobacterium smegmatis mc2155; details: mc2155, 48 h
[3] = test system: Escherichia coli K12 ΔtolC; details: K12, 24 h
[4] = test system: Pseudomonas aeruginosa PA14; details: PA14, 24 h
[5] = test system: Enterococcus faecium DSM-20477; details: DSM-20477, 24 h
[6] = test system: Micrococcus luteus DSM-1790; details: DSM-1790, 24 h
[7] = test system: Escherichia coli DSM-1116; details: DSM-1116, 24 h
[8] = test system: Pseudomonas aeruginosa PAO1; details: PAO1, 24 h
[9] = test system: Chromobacterium violaceum DSM-30191; details: DSM-30191, 24 h
[10] = test system: Histophilus somni
[11] = test system: Streptococcus uberis; details: 4 h
[12] = in vivo; details: BALB/c, mouse
[13] = test system: Mannheimia haemolytica
[14] = test system: intracellular M. tuberculosis H37Rv; assay: Intracellular activity ex vivo in THP-1-derived macrophages; assay type: cell-based, Mycobacterium tuberculosis
[15] = test system: M. tuberculosis H37Rv; assay: Time-kill kinetics in vitro; assay type: cell-based, Mycobacterium tuberculosis; details: independent triplicates
[16] = test system: HepG2 cells; details: HepG2, 24 h, alamarBlue, 0.005 - 99.0 μM, mean of 4 replicates
[17] = test system: Pasteurella multocida
[18] = test system: Pasteurella multocida; remark: listed apart in the source
[19] = test system: M. tuberculosis; details: for toxicity in infected mice: mouse, in vivo
[20] = test system: Staphylococcus aureus; details: 4 h
[21] = test system: M. tuberculosis H37Rv
[22] = test system: wildtype E. coli ribosomes; assay type: biochemical; details: purified wildtype 70S ribosomes, increasing concentrations
[23] = test system: ribosome; assay: Toeprinting assay on ErmBL mRNA; assay type: biochemical, E. coli; details: 10–100 μM, absence of isoleucine
Method: To address the mechanism of action of myxovalargins, we employed the toeprinting assay, which uses reverse transcription to monitor the position of ribosomes on a mRNA (Figure 6a).[24] The assay was performed in the absence of isoleucine (Ile) such that in the absence of antibiotics, ribosomes can initiate at the AUG start codon but become stuck after translating 15 amino acids when the Ile “catch-codon” enters the A-site (Figure 6a,b). […] We also performed toeprinting reactions in the presence of 5 μM erythromycin (Ery), which allows ribosomes to translate the first 10 amino acids of the ErmBL mRNA but then stalls them with GAU (Asp) codon in the P-site (Figure 6a,b), as reported previously.[25]−[27] After pre-incubation with Ery, we titrated reactions with increasing MyxB, which also led to a loss of the Ery-dependent ErmBL stalling band and appearance of ribosomes positioned on the start codon (Figure 6b), consistent with the overlap in ribosomal binding sites of MyxB and Ery (Figure 6c,d). […] Indeed, in the MyxB-SRC, we observed the simultaneous presence of P-site tRNA and MyxB (Figure 5d) but no ribosomes with additional presence of A-site tRNA (Figure S7-5). […]

[24] = test system: 23S rRNA of the large ribosomal subunit; assay type: binding, E. coli; details: 10 μM or 100 μM
[25] = test system: E. coli ribosomes bearing the A2503G mutation; assay type: biochemical
[26] = test system: eukaryotic translation; details: cited from earlier work
Source text: Microorganisms continue to be a major source for innovative antibiotics. Ubiquitously found but understudied soil-dwelling predatory myxobacteria have proven to be a rich source of bioactive compounds.[3]−[5] […] The myxovalargin structure was described in 1987 as comprising some congeners with Myxovalargin A (MyxA) ...

Q: Which MIC [1] does the source give for `CC(C)=C(NC(=O)C(C)C)C(=O)N[C@@H](C)C(=O)N(C)[C@@H](C)C(=O)N[C@@H](C(=O)N[C@@H](C(=O)N[C@@H](CC(=O)N[C@@H](C(=O)NC(C(=O)N[C@H](CCCNC(=N)N)C(=O)N[C@H](C(=O)N[C@@H](C(=O)NC(C(=O)N[C@H](C)C(=O)N[C@@H](C(=O)NCCCCNC(=N)N)C(C)(C)O)=C(C)C)C(C)C)C(C)C)=C(C)C)C(C)C)c1ccc(O)cc1)C(C)C)C(C)C` [Myx C] (Isobutyryl-[ΔVal]A[NMeA][dV][dV][X1][dV][ΔVal][dR]V[dV][ΔVal][dA][dVal(3-OH)]-Agmatine) here?
A: 2 µg/mL (≈ 1.21 µM)

Q: And the MIC [2]?
A: 4 µg/mL (≈ 2.43 µM)

Q: And the MIC [3]?
A: 32 µg/mL (≈ 19.4 µM)

Q: And the MIC [4]?
A: 32 µg/mL (≈ 19.4 µM)

Q: And the MIC [5]?
A: 1 µg/mL (≈ 0.606 µM)

Q: What about the MIC [6] of the same molecule?
A: 2 µg/mL (≈ 1.21 µM)

Q: What about the MIC [7] of the same molecule?
A: 64 µg/mL (≈ 38.8 µM)

Q: What about the MIC [8] of the same molecule?
A: 64 µg/mL (≈ 38.8 µM)

Q: And the MIC [9]?
A: 8 µg/mL (≈ 4.85 µM)

Q: Which MIC50 ([10]; 4 h) does the source give for `CC/C(C)=C(/NC(=O)[C@H](NC(=O)[C@@H](NC(=O)[C@@H](CCCNC(=N)N)NC(=O)C(NC(=O)[C@H](NC(=O)C[C@H](NC(=O)[C@H](NC(=O)[C@H](NC(=O)[C@H](C)N(C)C(=O)[C@H](C)NC(=O)C(NC(=O)CC(C)C)=C(C)C)C(C)C)C(C)C)c1ccc(O)cc1)C(C)C)=C(C)C)C(C)C)C(C)C)C(=O)N[C@H](C)C(=O)N[C@@H](C(=O)NCCCCNC(=N)N)C(C)(C)O` [MyxA, Myxovalargin A] (Isovaleryl-[ΔVal]A[NMeA][dV][dV][X1][dV][ΔVal][dR]V[dV][ΔIle(E)][dA][dVal(3-OH)]-Agmatine) here?
A: 4 µg/mL (≈ 2.39 µM)

Q: And the MIC range ([10]; 4 h)?
A: 2 to 8 µg/mL

Q: What about the MIC90 ([10]; bovine isolates, n = 20) of the same molecule?
A: 8 µg/mL (≈ 4.77 µM)

Q: What about the MIC [1] of the same molecule?
A: 2 µg/mL (≈ 1.19 µM)

Q: What about the MIC [2] of the same molecule?
A: 4 µg/mL (≈ 2.39 µM)

Q: And the MIC [11]?
A: 0.25 to 2 µg/mL

Q: What about the “MIC + milk” value [11] of the same molecule?
A: > 64 µg/mL

Q: What about the level at 0.5 h ([12]; ip, 10 mg/kg) of the same molecule?
A: 1830 ng/mL

Q: What about the level at 2 h ([12]; ip, 10 mg/kg) of the same molecule?
A: 1550 ng/mL

Q: What about the level at 0.5 h ([12]; sc, 50 mg/kg) of the same molecule?
A: 5260 ng/mL

Q: And the level at 2 h ([12]; sc, 50 mg/kg)?
A: 2280 ng/mL

Q: And the MIC50 ([13]; 4 h)?
A: 16 µg/mL (≈ 9.54 µM)

Q: What about the “MIC + serum” value ([13]; 4 h) of the same molecule?
A: 20 µg/mL

Q: What about the MIC90 ([13]; bovine isolates, n = 55) of the same molecule?
A: 16 µg/mL (≈ 9.54 µM)

Q: What about the MIC [3] of the same molecule?
A: 16 µg/mL (≈ 9.54 µM)

Q: And the “mode of action ex vivo (intracellular)” value [14]?
A: bacteriostatic activity

Q: What about the “mode of killing in vitro” value [15] of the same molecule?
A: dose-dependent bactericidal activity

Q: And the “median cytotoxic dose CTD50” value [16]?
A: > 99 µM

Q: And the MIC [4]?
A: 16 µg/mL (≈ 9.54 µM)

Q: What about the MIC [5] of the same molecule?
A: 0.5 µg/mL (≈ 0.298 µM)

Q: And the MIC50 ([17]; 4 h)?
A: 16 µg/mL (≈ 9.54 µM)

Q: What about the “MIC + serum” value ([17]; 4 h) of the same molecule?
A: 10 µg/mL

Q: What about the MIC90 ([17]; bovine isolates, n = 25) of the same molecule?
A: 16 µg/mL (≈ 9.54 µM)

Q: What about the tolerability (0.5 mg/kg/day i.p., seven consecutive doses) of the same molecule?
A: well tolerated

Q: And the tolerability (5 mg/kg/day i.p., on day 2)?
A: severe adverse effects

Q: And the “half-life (in words)” value (mice, i.p. 0.5, 2 and 5 mg/kg, blood, LC-MS)?
A: long half-life

Q: What about the “Survival rate 48 hpi” value ([18]; 10 mg/kg MyxA, i.p., single dose 1 h post-infection, groups of 6) of the same molecule?
A: 83%

Q: And the “Mean bacteria in liver” value ([18]; 10 mg/kg MyxA, i.p., n=1)?
A: 8.5 x 10^7 CFU/g

Q: What about the “Mean bacteria in liver” value ([18]; 10 mg/kg MyxA, i.p., n=5) of the same molecule?
A: 0 CFU/g

Q: And the “bacteriological cure (animals)” value ([18]; 10 mg/kg i.p.)?
A: five out of six

Q: And the “Mean bacteria in liver” value ([18]; 50 mg/kg MyxA, s.c.)?
A: 1.8 x 10^6 CFU/g

Q: And the “Survival rate 48 hpi” value ([18]; 50 mg/kg MyxA, s.c., single dose 1 h post-infection)?
A: 0%

Q: And the “tolerability (clinical scoring)” value ([18]; single 10 mg/kg i.p. dose, P. multocida sepsis model)?
A: well tolerated

Q: What about the MIC [6] of the same molecule?
A: 1 µg/mL (≈ 0.596 µM)

Q: And the “effect on bacterial burden in lung and spleen” value ([19]; 2 mg/kg i.p. daily, study terminated after 1 week)?
A: no significant effect on bacterial burden

Q: What about the “toxicity in infected mice” value [19] of the same molecule?
A: moribund after 1 week

Q: And the MIC [7]?
A: 32 µg/mL (≈ 19.1 µM)

Q: What about the MIC [8] of the same molecule?
A: 32 µg/mL (≈ 19.1 µM)

Q: And the MIC [20]?
A: 1 to 2 µg/mL

Q: What about the “MIC + milk” value [20] of the same molecule?
A: > 64 µg/mL

Q: What about the MIC [9] of the same molecule?
A: 8 µg/mL (≈ 4.77 µM)

Q: And the MIC [21]?
A: 0.2 µg/mL (≈ 0.119 µM)

Q: With `CCC(C)=C(NC(=O)[C@H](NC(=O)[C@@H](NC(=O)[C@@H](CCCNC(=N)N)NC(=O)C(NC(=O)[C@H](NC(=O)C[C@H](NC(=O)[C@H](NC(=O)[C@H](NC(=O)[C@H](C)N(C)C(=O)[C@H](C)NC(=O)C(NC(=O)C(C)C)=C(C)C)C(C)C)C(C)C)c1ccc(O)cc1)C(C)C)=C(C)C)C(C)C)C(C)C)C(=O)N[C@H](C)C(=O)N[C@@H](C(=O)NCCCCNC(=N)N)C(C)(C)O` [MyxB] (Isobutyryl-[ΔVal]A[NMeA][dV][dV][X1][dV][ΔVal][dR]V[dV][X2][dA][dVal(3-OH)]-Agmatine) as the molecule, how does the MIC [1] read?
A: 8 µg/mL (≈ 4.81 µM)

Q: What about the MIC [2] of the same molecule?
A: 8 µg/mL (≈ 4.81 µM)

Q: What about the “in vitro translation of firefly luciferase reporter” value [22] of the same molecule?
A: inhibited by MyxB in a dose-dependent fashion

Q: What about the MIC [3] of the same molecule?
A: 32 µg/mL (≈ 19.2 µM)

Q: And the “position of arrested ribosomes (toeprint)” value [23]?
A: ribosomes positioned with the AUG start codon in the P-site

Q: What about the MIC [4] of the same molecule?
A: 32 µg/mL (≈ 19.2 µM)

Q: And the MIC [5]?
A: 1 µg/mL (≈ 0.601 µM)

Q: And the MIC [6]?
A: 2 µg/mL (≈ 1.2 µM)

Q: And the MIC [7]?
A: 64 µg/mL (≈ 38.5 µM)

Q: And the “protection from dimethyl sulfate modification” value [24]?
A: protects multiple 23S rRNA nucleotides

Q: What about the MIC [8] of the same molecule?
A: 64 µg/mL (≈ 38.5 µM)

Q: What about the MIC [9] of the same molecule?
A: 32 µg/mL (≈ 19.2 µM)

Q: And the “in vitro translation of firefly luciferase reporter” value [25]?
A: completely resistant

Q: Which “toxicity in infected mice” value [19] does the source give for `CCC(C)=C(NC(=O)[C@H](NC(=O)[C@@H](NC(=O)[C@@H](CCCNC(=N)N)NC(=O)C(NC(=O)[C@H](NC(=O)C[C@H](NC(=O)[C@H](NC(=O)[C@H](NC(=O)[C@H](C)N(C)C(=O)[C@H](C)NC(=O)C(NC(=O)CC(C)C)=C(C)C)C(C)C)C(C)C)c1ccc(O)cc1)C(C)C)=C(C)C)C(C)C)C(C)C)C(=O)N[C@H](C)C(=O)N[C@@H](C(=O)NCCCCNC(=N)N)C(C)(C)O` [Myxovalargin] (Isovaleryl-[ΔVal]A[NMeA][dV][dV][X1][dV][ΔVal][dR]V[dV][X2][dA][dVal(3-OH)]-Agmatine) here?
A: moribund within 1 week

Q: And the “inhibition of eukaryotic translation” value [26]?
A: did not inhibit eukaryotic translation

Q: What about the “MIC (antitubercular activity)” value [21] of the same molecule?
A: 0.2 µg/mL (≈ 0.119 µM)

Q: With `CCN1CCN(c2cc3c(cc2F)c(=O)c(C(=O)O)cn3C2CC2)CC1` [enrofloxacin, reference compound] as the molecule, how does the “Mean bacteria in liver” value ([18]; 10 mg/kg enrofloxacin, s.c.) read?
A: 0 CFU/g

Q: What about the “Survival rate 48 hpi” value ([18]; 10 mg/kg enrofloxacin, s.c.) of the same molecule?
A: 100%
